Where two headings read alike, the source gives them in different places.

This is an account of results in patent US20230088704A1, “A PHARMACEUTICAL COMBINATION FOR THE TREATMENT OF A CANCER” (ABILITY PHARMACEUTICALS S.L., priority 2020, published 2023).

The test system of one test is JJN-3 cells. The test is described as follows: Cell viability (MTT) and combination index, ABTL0812 with bortezomib. The note with it: ABTL0812 5 μM, Bortezomib 0.5 nM, alone or combined; 48h. It is filed as cell-based. As to the method:
(§1) Methods: JJN-3 and OPM2 cells were seeded in 24-well plates and treated with ABTL0812 (5 μM), bortezomib (0.5 and 1 nM respectively) or a combination of both drugs and left in the incubator for 48h (0.5% FBS). Cell viability was studied by the MTT assay and combination index was determined to evaluate a possible synergism.
(§2) Cell viability was evaluated in all cases by MTT assay and the Combination Index (CI), to evaluate synergism, was calculated according to the method of Chou and Talalay (Chou 2006; Chou 2010), as follows: CI=(D)1/(Dx)1+(D)2/(Dx)2, where CI<1, =1, and >1 indicate synergism, additive effect, and antagonism, respectively. In the denominator, (Dx)1 is for D1 “alone” that inhibits a system x %, and (Dx)2 is for D2 “alone” that inhibits a system x %.

A further test deals with OPM2 cells. The test is described as above. It is filed as cell-based. The note with it: ABTL0812 5 μM, Bortezomib 1 nM, alone or combined; 48h. As to the method: as §1, §2
The subject of test [1] is Ishikawa cells. The test is classed as in vivo. Particulars: ABTL0812 oral 120 mg/kg/day; Doxorubicin 5 mg/kg i.p. once a week. The method, then:
Methods: Mice were injected with 4×10^6 Ishikawa cells in one flank to induce tumor formation. […] ABTL0812 was administered by the oral route at 120 mg/kg/day. Doxorubicin 5 mg/kg was administered intra-peritoneally once a week. Tumor volume and body weight were monitored 3 times a week.

Test [2] relates to Ishikawa cells. As to the kind of experiment: Human endometrial cancer xenograft, ABTL0812 with olaparib. The test is classed as in vivo. The note with it: ABTL0812 oral 120 mg/kg/day; Olaparib oral 50 mg/kg/day. The method, then: Methods: Mice were injected with 4×10^6 Ishikawa cells in one flank to induce tumor formation. […] Olaparib was administered by the oral route 50 mg/kg/day. Tumor volume and body weight were monitored 3 times a week.
On the technique in general: Xenograft models place foreign cells or tissue in a host animal.

A further test relates to PDL1. The test is described as follows: PDL1 expression in cancer cells by flow cytometry (Example 6.2). The test is classed as cell-based, human. The note with it: Panc-1 cells; ABTL0812 50 μM, IFNγ 2.5 ng/ml or both. As to the method:
Methods: Human cancer cell lines were incubated with 100 μM of ABTL0812 during 48 hours and collected for staining with anti-PDL1 antibody labeled with a fluorophore. After staining of cells with anti-PDL1 antibody, cells were run on Flow Cytometry (Facs Canto) to analyzed PDL1 levels in cancer cells. Additionally, we incubated Panc-1 cells with ABTL0812 (50 μM), IFNγ (2.5 ng/ml), a master regulator of PDL1 expression or a combination with both. Then, cells were collected, stained with anti-PDL1 antibody and analyzed by Flow Cytometry for the expression of PDL1.

In test [3] the test system is Ishikawa cells. As to the kind of experiment: Human endometrial cancer xenograft, ABTL0812 with bevacizumab. The test is classed as in vivo. The note with it: ABTL0812 oral 120 mg/kg/day; Bevacizumab ip 100 μg/dose every four days. The method, then: Methods: Mice were injected with 4×10^6 Ishikawa cells in one flank to induce tumor formation. […] Bevacizumab was administered ip at 100 μg/dose, every four days up to four administration. Tumor volume and body weight were monitored 3 times a week.

Take `CC(C)C[C@H](NC(=O)[C@H](Cc1ccccc1)NC(=O)c1cnccn1)B(O)O` [Bortezomib, reference compound]: the results for the cell death in the test on JJN-3 cells and in the test with OPM2 cells were ~15% and “around 10%”, respectively.

As to `COc1cccc2c1C(=O)c1c(O)c3c(c(O)c1C2=O)C[C@@](O)(C(=O)CO)C[C@@H]3O[C@H]1C[C@H](N)[C@H](O)[C@H](C)O1` [doxorubicin, reference compound], the tumor volume entry with Ishikawa cells [1] is given as “significantly reduced tumor volume”.

Take `O=C(c1cc(Cc2n[nH]c(=O)c3ccccc23)ccc1F)N1CCN(C(=O)C2CC2)CC1` [olaparib, reference compound]: the tumor volume result in the test on Ishikawa cells [2] was “significantly reduced tumor volume”.

Consider “IFNγ: well described master regulator of PDL1 expression [reference compound]”, for which the PDL1 levels entry with PDL1 is listed as “significantly higher levels of PDL1 compared with ABTL0812”.

Consider bevacizumab [reference compound], for which the tumor volume result in the test on Ishikawa cells [3] is listed as “significantly reduced tumor volume”.
